Here are results for two compounds from the NIST ThermoML archive (doi:10.1016/j.fluid.2012.06.002).

Structures are written as SMILES. ± gives the expanded uncertainty stated by the source.

The nature of this data set: wn = mass fraction of the nth substance listed. The conditions noted are these: 101 kPa, Liquid, pycnometer.

One may read the mass density as the mass of a sample divided by its volume.

Regarding `NC(N)=O.O=P(O)(O)O` [urea phosphate] + O, the mass density is on record as 1260 ± 1 kg/m3 (298.15 K, w1 = 0.538) and 1359 ± 2 kg/m3 (328.15 K, w1 = 0.734).

In the case of `N.O=P(O)(O)O` [ammonium dihydrogen phosphate] + O, the mass density (298.15 K, w1 = 0.293) is reported as 1164 ± 1 kg/m3 and the mass density (328.15 K, w1 = 0.436) is 1258 ± 1 kg/m3.
